The source of these data is patent publication US11246934B2, “Nanoparticles and methods for preparation thereof” (B.G. Negev Technologies & Applications Ltd. at Ben-Gurion …, priority 2015, dated 2022).

Counter-ions that a name gives are not always drawn.

Data set [1] in a line: Dynamic dialysis of chloramphenicol, apparent dialysis bag permeability constant. Conditions: dialysis bag 10K MWCO, NaCl 0.9% w/v. Type of data set: physicochemical. The protocol: The amount of drug released from the NPs was determined by a dynamic dialysis technique monitoring the drug concentration in the receiver solution (i.e., outer solution surrounding a dialysis bag). The method is based on the assumption that drug is first released from the NPs into the donor solution (i.e., the dissolution medium inside the dialysis bag). Subsequently, the drug can diffuse through the dialysis bag from the donor to the receiver.
A sample of 3 ml of the NP dispersion (1:1 diluted with saline) was introduced into a dialysis bag (SnakeSkin Dialysis Tubing, 10K MWCO, 22 mm, Thermo Fisher Scientific, Rockford, USA). The sample was dialyzed against 60 ml of saline solution (NaCl solution, 0.9%, w/v) for 7 hours. The receiver solution was agitated by magnetic stirring throughout the experimental procedure. Samples of 200 μl were withdrawn from the receiver solution at predetermined time intervals and their drug concentrations were measured by HPLC.
The apparent dialysis bag permeability constant (k′) was calculated according to the method described in ‘Materials and Methods’ section 2.6. […]

For data set [2] the following is noted: topically applied, eye drops; cited from earlier work.
In data set [3] the test system is melanoma B16F0 cells. Nature of the data set: B16F0 melanoma tumor model in mice. Conditions: day 18 of treatment, 0.5 mg/kg s.c. twice a week.
Description: Female C57BL/6 mice (5-6 weeks old, 14-18 g) were obtained from Harlan Laboratories Ltd (Jerusalem, Israel). Mice were housed under humidity- and temperature-controlled conditions, and the light/dark cycle was set at 12-h intervals.
B16F0 melanoma cells were maintained in RPMI 1640 medium supplemented with 10% bovine serum and 200 μM L-glutamine, 10 units/mL penicillin, and 10 μg/mL streptomycin (Biological Industries, Beth Ha'Emek, Israel). The cells were kept at 37° C. in a 5% CO2 humidified atmosphere.
The mice were inoculated with melanoma B16F0 cells (1×10^6) subcutaneously in the right flank of the mice. After tumors had been visualized a week later, the mice were weighed and measured for tumor size (244±213 mm^3), and were randomly sorted into three groups. […] Tumor volumes and mouse body weights were measured routinely before each treatment. Measurement of tumor size was performed with a caliper in two dimensions, and individual tumor volumes (V) were calculated by the formula: V=[length×(width)^2]×π/6.
The statistical differences between the therapeutic effects of different treatments on tumor growth were determined by two-tailed Student's test. […]
Data set [4] deals with MCF-7 cells (cell line of breast cancer). The experiment in a line: MTT cytotoxicity assay in MCF-7 cell line. It counts as cell-based. Conditions: MCF-7, at 1 mg/ml. The protocol: The direct effect of curcumin and doxorubicin on the viability of cultured cells was assessed in vitro using the MCF-7 cells (cell line of breast cancer). […] Fresh cell medium was then prepared with test compounds in appropriate dilutions (equivalent to their concentrations as determined by HPLC). Cell growth after 48 h was assayed by MTT assay [3-(4,5-Dimethylthiazol-2-yl)-2,5-diphenyltetrazolium bromide, Sigma-Aldrich] and was evaluated by measuring the absorbance at 540 nm after 3 h of incubation in a medium containing 0.5 mg/ml MTT (Sunrise™ absorbance plate reader, TECAN). […] FIG. 13C presents dose response behavior of DOX-loaded and unloaded NPs vs. solutions at various concentrations after 24-h and 48-h incubation.

For orientation: half-life means how long it takes for the measured level to halve. In the case of `O=C(N[C@H](CO)[C@H](O)c1ccc([N+](=O)[O-])cc1)C(Cl)Cl` [chloramphenicol], the “apparent permeability constant (k′)” value in data set [1] was found to be 1.207 ± 0.018 h⁻¹. Also, in data set [2], the bioavailability is on record as 1-10% and the half-life is 1.5 to 5 h.

In turn, `COc1cccc2c1C(=O)c1c(O)c3c(c(O)c1C2=O)C[C@@](O)(C(=O)CO)C[C@@H]3O[C@H]1C[C@H](N)[C@H](O)[C@H](C)O1` [DOX-HCl solution, doxorubicin] returned a survival in data set [3] of 58%. Moreover, in data set [4], the cytotoxicity result is recorded as “highly cytotoxic”.
